Results taken from publication PMC10574883, “Harnessing the Bioactive Potential of Limonium spathulatum (Desf.) Kuntze: Insights into Enzyme Inhibition and Phytochemical Profile” (Plants, 2023).

Target: T1, tyrosinase from mushroom
T1 construct: gene PPO3; commercial native mushroom enzyme (Fischer Scientific)
Test: tyrosinase inhibition assay
Assay type: biochemical
Conditions: positive control; anomer of arbutin not stated
From the text: tyrosinase inhibition assay on tyrosinase from mushroom

Tyrosinase: 0.17 ± 0.01 mg/mL
Compound: OC[C@H]1O[C@@H](Oc2ccc(O)cc2)[C@H](O)[C@@H](O)[C@@H]1O [Arbutin]
